We go through 21 molecules from patent US5891871A, “Substituted 2,3-benzodiazepin-4-ones and the use thereof” (CoCensys, Inc., priority 1997, dated 1999).

For test [1] the following is noted: literature; cited from earlier work.
The conditions of test [2]: literature; cited from earlier work. This is another data set of the same source.
The test system of another test is AMPA receptor. As to the kind of experiment: AMPA receptor antagonism / positive modulation: AMPA induced current in Xenopus oocytes expressing rat whole brain poly(A)+ RNA (electrophysiology). Format: cell-based. To be noted: for IC50: oocytes expressing rat brain AMPA receptors; for AMPA positive potentiation, 200% @ μM: concentration at which AMPA current is potentiated 200%. The method, then: The novel substituted 2,3-benzodiazepin-4-ones were assessed by electrophysiological assays in Xenopus oocytes expressing rat whole brain poly(A)^+ RNA (see Keana et al, J. Med. Chem. 38. 4367-4379 (1995)) or in cultured rat cortical neurons (see Woodward et. al. Mol. Pharmacol. 47: 568-581 (1995)) for AMPA receptor activity. Compounds which are useful for treating or preventing the adverse consequences of stroke, hypoglycemia, neurodegenerative disorders, anxiety, epilepsy or psychosis, or which induce analgesia, will inhibit the currents across the membranes of the oocyte expressing AMPA receptors. However, if the compound potentiates currents across the oocyte membrane, then the compound is expected to be useful in enhancing cognition or treating schizophrenia or neurodegenerative diseases such as Parkinson's Disease.
The ability of AMPA receptor antagonists or positive modulators to inhibit or enhance AMPA induced current in oocyte expressing neuronal AMPA receptor was determined using procedures fully described in Keana et al, J. Med. Chem. 38: 4367-4379 (1995). […] The compounds of examples 22, 30 and 31 are positive modulators of AMPA receptor. They potentiate the AMPA current 200% at a concentration of 11, 10 and 11 μM, respectively.

The test system of another test is mice. Kind of test: Maximal Electroshock-induced Seizure (MES) test. Particulars: for ED50: Mus musculus, mice, iv; for anticonvulsant activity in the MES experiment: in words. Format: in vivo. The method, then:
Seizures are induced by application of current (50 mA, 60 pulses/sec, […], 1 sec duration, .c.) through saline-coated corneal electrodes using a Ugo Basile ECT device (Model 7801). […] A tonic seizure is defined as a hindlimb extension in excess of 90 degrees from the plane of the body. Results are treated in a quintal manner.

Another test deals with rat. To be noted: literature; cited from earlier work.
For test [3] the following is noted: literature; cited from earlier work. This is another data set of the same source.
The subject of a further test is AMPA receptors. Particulars: literature; cited from earlier work.
For test [4] the following is noted: literature; cited from earlier work. This is another data set of the same source.

SMILES strings stand for the structures.

As for `CC1Cc2cc3c(cc2C(c2ccc(N)cc2)=NN1)OCO3` (centres unmarked), in test [1], the central nervous effect entry was “CNS stimulating activity”.
As for `O=C(c1ccc2c(c1)OCO2)N1CCCCC1` [BDP, 1-(1,3-benzodioxol-5-ylcarbonyl) piperidine], the memory enhancement entry in test [2] is reported as “enhance memory”.
One may read the IC50 as the concentration needed to halve the response being measured. For `Cc1ccc(C2=NNC(=O)Cc3cc4c(cc32)OCO4)cc1` [Example 9, 7,8-Methylenedioxy-1-(4-methylphenyl)-3,5-dihydro-2,3-benzodiazepin-4(4H)-one], in the test with AMPA receptor, the IC50 was found to be 15 µM.
A word on the ED50: it is the midpoint of the dose-response relation. The low end stands for greater potency, the high end for weaker potency. For `Nc1ccc(C2=NNC(=O)Cc3cc4c(cc32)OCO4)cc1` [Example 14, 1-(4-Aminophenyl)-7,8-methylenedioxy-3,5-dihydro-2,3-benzodiazepin-4(4H)-one], the IC50 with AMPA receptor turned out to be 3 µM. Moreover, in the test on mice, it took a dose of 2.4 mg/kg to reach the 50% effect level (ED50) and the “anticonvulsant activity in the MES experiment” value is reported as “active as anticonvulsants”.
Turning to `CNC(=O)N1N=C(c2ccccc2)c2cc3c(cc2CC1=O)OCO3` [Example 15, 7,8-Methylenedioxy-3-methylaminocarbonyl-1-phenyl-3,5-dihydro-2,3-benzodiazepin-4(4H)-one], the IC50 in the test on AMPA receptor came to 26 µM.
Consider `CC(C)N1N=C(c2ccccc2)c2cc3c(cc2CC1=O)OCO3` [Example 18, 3-Isopropyl-7,8-methylenedioxy-1-phenyl-3,5-dihydro-2,3-benzodiazepin-4(4H)-one], for which the “AMPA positive potentiation, 200% @ μM” value with AMPA receptor is 30 µM.
On the same count and under the same terms, next, `CCC(C)N1N=C(c2ccccc2)c2cc3c(cc2CC1=O)OCO3` (centres unmarked) [Example 21, 3-(2-Butyl)-7,8-methylenedioxy-1-phenyl-3,5-dihydro-2,3-benzodiazepin-4(4H)-one]: 12 µM; `CCC(CC)N1N=C(c2ccccc2)c2cc3c(cc2CC1=O)OCO3` [Example 22, 7,8-Methylenedioxy-3-(3-pentyl)-1-phenyl-3,5-dihydro-2,3-benzodiazepin-4(4H)-one]: 11 µM; `CCCC(C)N1N=C(c2ccccc2)c2cc3c(cc2CC1=O)OCO3` (centres unmarked) [Example 25, 7,8-Methylenedioxy-3-(2-pentyl)-1-phenyl-3,5-dihydro-2,3-benzodiazepin-4(4H)-one]: 160 µM.
Still for that read-out and setting: next, `O=C1Cc2cc3c(cc2C(c2ccccc2)=NN1C1CCCCCC1)OCO3` [Example 30, 3-Cycloheptyl-7,8-methylenedioxy-1-phenyl-3,5-dihydro-2,3-benzodiazepin-4(4H)-one]: 10 µM; `O=C1Cc2cc3c(cc2C(c2ccccc2)=NN1C1CCCCC1)OCO3` [Example 31, 3-Cyclohexyl-7,8-methylenedioxy-1-phenyl-3,5-dihydro-2,3-benzodiazepin-4(4H)-one]: 11 µM; `CCCC(CC)N1N=C(c2ccccc2)c2cc3c(cc2CC1=O)OCO3` (centres unmarked) [Example 33, 3-(3-Hexyl)-7,8-methylenedioxy-1-phenyl-3,5-dihydro-2,3-benzodiazepin-4(4H)-one]: 24 µM.
Consider `CC1C(=O)NN=C(c2ccc(N)cc2)c2cc3c(cc21)OCO3` (centres unmarked) [Example 45, 1-(4-Aminophenyl)-5-methyl-7,8-methylenedioxy-3,5-dihydro-2,3-benzodiazepin-4(4H)-one], for which, in the test on AMPA receptor, the IC50 was 4 µM.
Same read-out and setting: next, `CC1C(=O)NN=C(c2ccc3c(c2)OCO3)c2cc3c(cc21)OCO3` (centres unmarked) [Example 48, 5-Methyl-1-(3,4-methylenedioxyphenyl)-7,8-methylenedioxy-3,5-dihydro-2,3-benzodiazepin-4(4H)-one]: 10 µM; `COc1cc(C2=NNC(=O)Cc3cc4c(cc32)OCO4)ccc1[N+](=O)[O-]` [Example 56, 7,8-Methylenedioxy-1-(3-methoxy-4-nitrophenyl)-3,5-dihydro-2,3-benzodiazepin-4(4H)-one]: 20 µM.
For `Cc1cc(C2=NNC(=O)Cc3cc4c(cc32)OCO4)ccc1N` [Example 61, 1-(4-Amino-3-methylphenyl)-7,8-methylenedioxy-3,5-dihydro-2,3-benzodiazepin-4(4H)-one], the IC50 in the test on AMPA receptor is 1 µM. Also, in the test with mice, the ED50 turned out to be 2.7 mg/kg and the “anticonvulsant activity in the MES experiment” value was “active as anticonvulsants”.
On the same counts, the results for `Nc1ccc(C2=NNC(=O)Cc3cc4c(cc32)OCO4)c(Cl)c1` [Example 62, 1-(4-Amino-2-chlorophenyl)-7,8-methylenedioxy-3,5-dihydro-2,3-benzodiazepin-4(4H)-one] are 4 µM, 3.2 mg/kg and “active as anticonvulsants”.
Consider `Nc1ccc(C2=NNC(=O)Cc3cc4c(cc32)OCO4)cc1Cl` [Example 63, 1-(4-Amino-3-chlorophenyl)-7,8-methylendioxy-3,5-dihydro-2,3-benzodiazepin-4(4H)-one], for which, in the test on AMPA receptor, the IC50 came to 0.8 µM.
Consider `CC1=NN=C(c2ccc(N)cc2)c2cc3c(cc2C1)OCO3.Cl` [GYKI 52466, 1-(4-aminophenyl)-4-methyl-7,8-methylenedioxy-5H-2,3-benzodiazepine-hydrochloride], for which the “neuroprotection in rat global ischemia” value in the test with rat was “effective neuroprotective agent”. In addition, in test [3], the anticonvulsant activity result was “effective anticonvulsant”.
Regarding `CC(=O)N1N=C(c2ccc(N)cc2)c2cc3c(cc2C[C@H]1C)OCO3` [LY300164], in test [3], the anticonvulsant activity entry is on record as “anticonvulsant activity”. The AMPA receptor antagonism result with AMPA receptors is reported as “noncompetitive antagonist of AMPA receptors”.
In the case of `NS(=O)(=O)c1cccc2c1c([N+](=O)[O-])cc1nc(O)c(O)nc12` [NBQX, 2,3-dihydroxy-6-nitro-7-sulfamoylbenzo[f]quinoxaline], the “prevention of global and focal ischemic damage” value in test [4] was “effective in preventing global and focal ischemic damage”.
